In ChEMBL document CHEMBL1614629, “Extrapolation of human pharmacokinetic parameters from rat, dog, and monkey data: Molecular properties associated with extrapolative success or failure” (J Pharm Sci, 2005):

Experiments:
[1] = Clearance in dog after iv administration; format: ADME, organism-based, Canis lupus familiaris; settings: in vivo
[2] = Clearance in human after iv administration; format: ADME, organism-based; settings: in vivo
[3] = Volume of distribution at steady state in rat after iv administration; format: ADME, organism-based; settings: in vivo
[4] = Clearance in monkey after iv administration; format: ADME, organism-based; settings: macaca, in vivo
[5] = Volume of distribution at steady state in monkey after iv administration; format: ADME, organism-based; settings: macaca, in vivo, read-out: Vdss
[6] = Clearance in rat after iv administration; format: ADME, organism-based; settings: in vivo
[7] = Volume of distribution at steady state in human after iv administration; format: ADME, organism-based; settings: in vivo, read-out: Vdss
[8] = Volume of distribution at steady state in dog after iv administration; format: ADME, organism-based, Canis lupus familiaris; settings: in vivo, read-out: Vdss

| SMILES | clearance [1] | clearance [2] | Vdss [3] | clearance [4] | Vd [5] | clearance [6] | Vd [7] | Vd [8] |
| --- | --- | --- | --- | --- | --- | --- | --- | --- |
| CN(C)C(=O)CCSC(SCCC(=O)O)c1cccc(/C=C/c2ccc3ccc(Cl)cc3n2)c1 (stereo not drawn) [MK-571] | 4 mL/min/kg | 0.92 mL/min/kg | 0.59 L/kg | 1.9 mL/min/kg | 0.32 L/kg | 37 mL/min/kg | 0.09 L/kg | 0.23 L/kg |
| O=C(OC1C[C@@H]2CC3C[C@@H](C1)N2CC3O)c1c[nH]c2ccccc12 (stereo partly drawn) | 27 mL/min/kg | 22 mL/min/kg | 15 L/kg | 77 mL/min/kg | 28 L/kg | 94 mL/min/kg | 11 L/kg | 9.6 L/kg |
| C#C[C@]1(O)CC[C@H]2[C@@H]3CCc4cc(O)ccc4[C@H]3CC[C@@]21C [ETHINYL ESTRADIOL] | 25 mL/min/kg | 5 mL/min/kg | 73 L/kg | 17 mL/min/kg | 6 L/kg | 64 mL/min/kg | 18 L/kg | 17 L/kg |
| CC1CCCC(C)N1CCCC(O)(c1ccccc1)c1ccccn1 (stereo not drawn) [PIRMENOL] | 6 mL/min/kg | 2.5 mL/min/kg | 12 L/kg | 5 mL/min/kg | 1.4 L/kg | 23 mL/min/kg | 1.3 L/kg | 3.3 L/kg |
| CC(=O)CC(c1ccccc1)c1c(O)c2ccccc2oc1=O (stereo not drawn) [WARFARIN] | 0.3 mL/min/kg | 0.04 mL/min/kg | 0.22 L/kg | 0.13 mL/min/kg | 0.11 L/kg | 0.36 mL/min/kg | 0.11 L/kg | 0.28 L/kg |
| NCC1(CC(=O)O)CCCCC1 [GABAPENTIN] | 2.3 mL/min/kg | 1.8 mL/min/kg | 1.2 L/kg | 2.6 mL/min/kg | 0.68 L/kg | 9.5 mL/min/kg | 0.82 L/kg | 0.16 L/kg |
| CC[C@]1(O)C[C@@H]2CN(CCc3c([nH]c4ccccc34)[C@@](C(=O)OC)(c3cc4c(cc3OC)N(C)[C@H]3[C@@](O)(C(=O)OC)[C@H](OC(C)=O)[C@]5(CC)C=CCN6CC[C@]43[C@@H]65)C2)C1 [VINBLASTINE] | 22 mL/min/kg | 12 mL/min/kg | 12 L/kg | 7 mL/min/kg | 1.5 L/kg | 25 mL/min/kg | 24 L/kg | 2.3 L/kg |
| COCCOC(=O)C1=C(C)NC(C)=C(C(=O)OC(C)C)C1c1cccc([N+](=O)[O-])c1 (stereo not drawn) [NIMODIPINE] | 34 mL/min/kg | 14 mL/min/kg | 0.96 L/kg | 33 mL/min/kg | 3.6 L/kg | 56 mL/min/kg | 0.9 L/kg | 3.2 L/kg |
| NC1(C(=O)O)CC1 [1-Aminocyclopropane carboxylic acid] | 0.4 mL/min/kg | 1.5 mL/min/kg | 0.64 L/kg | 3.1 mL/min/kg | 0.72 L/kg | 3.2 mL/min/kg | 0.73 L/kg | 0.7 L/kg |
| Nc1nc(/C(=N/O)C(=O)N[C@@H]2C(=O)N3C(C(=O)O)=C(/C=C4\CCN(CC(F)(F)F)C4=O)CS[C@H]23)cs1 [RO 25-6833] | 2.7 mL/min/kg | 0.38 mL/min/kg | 0.16 L/kg | 0.78 mL/min/kg | 0.12 L/kg | 0.95 mL/min/kg | 0.12 L/kg | 0.24 L/kg |
| O=c1[nH]cnc2c1ncn2[C@H]1CC[C@@H](CO)O1 [DIDANOSINE] | 23 mL/min/kg | 14 mL/min/kg | 0.99 L/kg | 12 mL/min/kg | 0.92 L/kg | 66 mL/min/kg | 0.81 L/kg | 0.95 L/kg |
| O=C(O)Cc1ccccc1Nc1c(Cl)cccc1Cl [DICLOFENAC] | 1.6 mL/min/kg | 4.2 mL/min/kg | 0.75 L/kg | 8.7 mL/min/kg | 0.17 L/kg | 9.4 mL/min/kg | 0.17 L/kg | 0.23 L/kg |
| CN1C(=O)OC(C)(C)C1=O [TRIMETHADIONE] | 2.9 mL/min/kg | 0.7 mL/min/kg | 0.66 L/kg | 1.6 mL/min/kg | 0.66 L/kg | 5.7 mL/min/kg | 0.61 L/kg | 0.63 L/kg |
| O=C(O)C[C@H](NC(=O)CP(=O)(O)O)C(=O)O [PALA] | 7 mL/min/kg | 0.8 mL/min/kg | 4.5 L/kg | 3.7 mL/min/kg | 0.35 L/kg | 53 mL/min/kg | 0.35 L/kg | 0.6 L/kg |
| COc1ccc2c(c1)c(CC(=O)O)c(C)n2C(=O)c1ccc(Cl)cc1 [INDOMETHACIN] | 0.002 mL/min/kg | 2 mL/min/kg | 0.1 L/kg | 13 mL/min/kg | 1.8 L/kg | 0.43 mL/min/kg | 0.26 L/kg | 7.4 L/kg |
| CO[C@@]1(NC(=O)CSCC#N)C(=O)N2C(C(=O)O)=C(CSc3nnnn3C)CS[C@@H]21 [CEFMETAZOLE] | 5.3 mL/min/kg | 1.8 mL/min/kg | 0.49 L/kg | 3.8 mL/min/kg | 0.14 L/kg | 40 mL/min/kg | 0.14 L/kg | 0.24 L/kg |

| SMILES | clearance [1] | clearance [2] | Vdss [3] | clearance [4] | Vd [5] | clearance [6] | Vd [7] | Vd [8] |
| --- | --- | --- | --- | --- | --- | --- | --- | --- |
| CC1=NC(=O)C(CCN(C(C)C)C(C)C)(c2ccccc2)C2CCCCN12 (stereo not drawn) [ACTISOMIDE] | 9 mL/min/kg | 6.8 mL/min/kg | 1.1 L/kg | 16.4 mL/min/kg | 1.6 L/kg | 9.8 mL/min/kg | 0.58 L/kg | 1.1 L/kg |
| Cc1cccnc1NS(=O)(=O)c1ccc(C#Cc2ccc(O)c(C(=O)O)c2)cc1 [SUSALIMOD] | 20 mL/min/kg | 0.09 mL/min/kg | 1.2 L/kg | 2 mL/min/kg | 0.08 L/kg | 62 mL/min/kg | 0.12 L/kg | 0.19 L/kg |
| c1ccc(C2(N3CCCCC3)CCCCC2)cc1 [PHENCYCLIDINE] | 50 mL/min/kg | 4.9 mL/min/kg | 23 L/kg | 37 mL/min/kg | 7.3 L/kg | 122 mL/min/kg | 6.2 L/kg | 17 L/kg |
| CCC1(C)CC(=O)NC1=O (stereo not drawn) [ETHOSUXIMIDE] | 0.42 mL/min/kg | 0.15 mL/min/kg | 0.68 L/kg | 0.33 mL/min/kg | 0.82 L/kg | 3.1 mL/min/kg | 0.63 L/kg | 0.59 L/kg |
| CC#CCC(C)[C@H](O)/C=C/[C@@H]1[C@H]2C/C(=C/CCCC(=O)O)C[C@H]2C[C@H]1O (stereo partly drawn) [ILOPROST] | 67 mL/min/kg | 17 mL/min/kg | 0.8 L/kg | 58 mL/min/kg | 0.9 L/kg | 32 mL/min/kg | 0.4 L/kg | 0.9 L/kg |
| N[C@@H](Cc1ccc(O)c(O)c1)C(=O)O [LEVODOPA] | 19 mL/min/kg | 23 mL/min/kg | 9.8 L/kg | 17 mL/min/kg | 0.47 L/kg | 109 mL/min/kg | 1.7 L/kg | 0.4 L/kg |
| Cc1cccc(C)c1NC(=O)NCCCNC(C)C | 13 mL/min/kg | 7.2 mL/min/kg | 3.2 L/kg | 32 mL/min/kg | 3.8 L/kg | 82 mL/min/kg | 1.4 L/kg | 1.2 L/kg |
| C[C@@H]1[C@H](O)[C@@H](C)/C=C/C=C/C=C/C=C/C=C/C=C/C=C/[C@H](O[C@@H]2O[C@H](C)[C@@H](O)[C@H](N)[C@@H]2O)C[C@@H]2O[C@](O)(C[C@@H](O)C[C@@H](O)[C@H](O)CC[C@@H](O)C[C@@H](O)CC(=O)O[C@H]1C)C[C@H](O)[C@H]2C(=O)O [AMPHOTERICIN B] | 0.1 mL/min/kg | 0.4 mL/min/kg | 2.3 L/kg | 0.1 mL/min/kg | 0.2 L/kg | 2 mL/min/kg | 4 L/kg | 0.5 L/kg |
| C[C@@H](O)[C@H]1C(=O)N2C(C(=O)O)=C(S[C@@H]3CN[C@H](C(=O)N(C)C)C3)[C@H](C)[C@H]12 [MEROPENEM] | 4 mL/min/kg | 4 mL/min/kg | 0.3 L/kg | 7 mL/min/kg | 0.3 L/kg | 47 mL/min/kg | 0.3 L/kg | 0.25 L/kg |
| CN(C)CCCC1(c2ccc(F)cc2)OCc2cc(C#N)ccc21 (stereo not drawn) [CITALOPRAM] | 14 mL/min/kg | 5 mL/min/kg | 21 L/kg | 39 mL/min/kg | 10 L/kg | 82 mL/min/kg | 14 L/kg | 10 L/kg |
| Cc1cc(O)c(C(=O)N[C@@H](C(=O)N[C@@H]2C(=O)N3C(C(=O)O)=C(CSc4nnnn4C)CS[C@H]23)c2ccc(O)cc2)cn1 [CEFPIRAMIDE] | 5.1 mL/min/kg | 0.28 mL/min/kg | 0.26 L/kg | 0.52 mL/min/kg | 0.1 L/kg | 9.5 mL/min/kg | 0.11 L/kg | 0.45 L/kg |
| Cc1nc(=O)c(C#N)c(NCc2cccnc2)[nH]1 [PELRINONE] | 11 mL/min/kg | 4 mL/min/kg | 3.3 L/kg | 13 mL/min/kg | 0.85 L/kg | 28 mL/min/kg | 0.35 L/kg | 1.2 L/kg |
| CO[C@@]1(NC(=O)C(C(=O)[O-])c2ccc(O)cc2)C(=O)N2C(C(=O)[O-])=C(CSc3nnnn3C)CO[C@@H]21.[Na+].[Na+] (stereo partly drawn) [MOXALACTAM DISODIUM] | 2.2 mL/min/kg | 1.2 mL/min/kg | 0.28 L/kg | 2 mL/min/kg | 0.16 L/kg | 9.4 mL/min/kg | 0.27 L/kg | 0.2 L/kg |
| CC(=N)N1CC[C@H](SC2=C(C(=O)O)N3C(=O)[C@H]([C@@H](C)O)[C@H]3C2)C1 | 4.9 mL/min/kg | 3.1 mL/min/kg | 0.19 L/kg | 6.5 mL/min/kg | 0.3 L/kg | 28 mL/min/kg | 0.18 L/kg | 0.22 L/kg |
| CCOC(=O)C1(c2ccccc2)CCN(C)CC1 [MEPERIDINE] | 43 mL/min/kg | 17 mL/min/kg | 24 L/kg | 1 mL/min/kg | 5.9 L/kg | 253 mL/min/kg | 4.4 L/kg | 2.4 L/kg |
